The results in this text go back to patent US20250059180A1 (DONG WHA PHARM. CO., LTD., priority 2022, published 2025).

One test deals with Pfeiffer cells, lymphoma cells having EZH2 mutation (A677G). As to the kind of experiment: Proliferation inhibition of cells of hematologic malignancies (CCK-8, 11 days). The test is classed as cell-based. The following applies: 11 days culture, read-out: Cell proliferation inhibitory effect (IC50). The method, boiled down: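 Pfeiffer lymphoma cells (EZH2 A677G) in RPMI1640 with 10% FBS were seeded at 10,000 cells/well and exposed to test material for 11 days, with compound replaced every 3–4 days. Viability was read by CCK-8 absorbance at 450 nm, and IC50 was derived by non-linear regression curve fitting.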
In the case of `CCN(C)c1ncc(-c2cc(C(=O)NCc3c(SC)cc(C)[nH]c3=O)c(C)c3c2OC(C)(C2CCN(CC(F)F)CC2)O3)cn1` (single isomer, unassigned) [Compound 82, 2-(1-(2,2-difluoroethyl)piperidin-4-yl)-7-(2-(ethyl(methyl)amino)pyrimidin-5-yl)-2,4-dimethyl-N-((6-methyl-4-(methylthio)-2-oxo-1,2-dihydropyridin-3-yl)methyl)benzo[d][1,3]dioxole-5-carboxamide], the IC50 lay within 10 to 100 nM.
The same measure, in the same setting: the figure for `CSc1cc(C)[nH]c(=O)c1CNC(=O)c1cc(-c2cnc(N3CCOCC3)nc2)c2c(c1C)OC(C)(C1CCN(CC(F)F)CC1)O2` (single isomer, unassigned) [Compound 72, 2-(1-(2,2-difluoroethyl)piperidin-4-yl)-2,4-dimethyl-N-((6-methyl-4-(methylthio)-2-oxo-1,2-dihydropyridin-3-yl)methyl)-7-(2-morpholinopyrimidin-5-yl)benzo[d][1,3]dioxole-5-carboxamide] is not below 100 nM; for `CSc1cc(C)[nH]c(=O)c1CNC(=O)c1cc(-c2ccc(N3C[C@@H](C)O[C@@H](C)C3)nc2)c2c(c1C)OC(C)(C1CCN(CCc3ccccc3)CC1)O2` (single isomer, unassigned) [Compound 56] it is not below 100 nM.
The same measure, in the same setting: under `CSc1cc(C)[nH]c(=O)c1CNC(=O)c1cc(-c2cnc(N3CCOCC3)nc2)c2c(c1C)OC(C)(C1CCN(CC(F)(F)F)CC1)O2` (stereo not shown) [Compound 70, 2,4-dimethyl-N-((6-methyl-4-(methylthio)-2-oxo-1,2-dihydropyridin-3-yl)methyl)-7-(2-morpholinopyrimidin-5-yl)-2-(1-(2,2,2-trifluoro)piperidin-4-yl)benzo[d][1,3]dioxole-5-carboxamide] stands not below 100 nM.
The same measure, in the same setting: the figure for `CSc1cc(C)[nH]c(=O)c1CNC(=O)c1cc(-c2ccc(N3C[C@@H](C)O[C@@H](C)C3)nc2)c2c(c1C)OC(C)(C1CCN(C3CCCCC3)CC1)O2` (single isomer, unassigned) [Compound 54] is not below 100 nM; for `CSc1cc(C)[nH]c(=O)c1CNC(=O)c1cc(-c2cnc(N3C[C@@H](C)O[C@@H](C)C3)nc2)c2c(c1C)OC(C)([C@H]1CC[C@H](N(C)CC(F)(F)F)CC1)O2` (stereo partly drawn) [Compound 23, 7-(2-((2S,6R)-2,6-dimethylmorpholino)pyrimidin-5-yl)-2,4-dimethyl-2-(trans-4-(methyl(2,2,2-trifluoroethyl)amino)cyclohexyl)-N-((6-methyl-4-(methylthio)-2-oxo-1,2-dihydropyridin-3-yl)methyl)benzo[d][1,3]dioxole-5-carboxamide] it is not above 10 nM.

Staying with this test, now noted: Homo sapiens, Pfeiffer, 264 h, 11 days culture, read-out: Cell proliferation inhibitory effect (IC50).
On to `CSc1cc(C)[nH]c(=O)c1CNC(=O)c1cc(-c2ccc(N3CCCCC3)nc2)c2c(c1C)OC(C)(C1CCN(CC(F)(F)F)CC1)O2` (stereo not shown) [Compound 91, 2,4-dimethyl-N-((6-methyl-4-(methylthio)-2-oxo-1,2-dihydropyridin-3-yl)methyl)-7-(6-(piperidin-1-yl)pyridin-3-yl)-2-(1-(2,2,2-trifluoroethyl)piperidin-4-yl)benzo[d][1,3]dioxole-5-carboxamide], for which the IC50 is not below 100 nM.
`CSc1cc(C)[nH]c(=O)c1CNC(=O)c1cc(-c2ccc(N3C[C@@H](C)O[C@@H](C)C3)nc2)c2c(c1C)OC(C)(C1CCN(CC(F)F)CC1)O2` (stereo partly drawn) [Compound 46, 2-(1-(2,2-difluoroethyl)piperidin-4-yl)-7-(6-((2S,6R)-2,6-dimethylmorpholino)pyridin-3-yl)-2,4-dimethyl-N-((6-methyl-4-(methylthio)-2-oxo-1,2-dihydropyridin-3-yl)methyl)benzo[d][1,3]dioxole-5-carboxamide]: the IC50 was not above 10 nM.
Same read-out and setting: the figure for `COC(CN(C)[C@H]1CC[C@H](C2(C)Oc3c(-c4ccc(N5C[C@@H](C)O[C@@H](C)C5)nc4)cc(C(=O)NCc4c(SC)cc(C)[nH]c4=O)c(C)c3O2)CC1)OC` (stereo partly drawn) [Compound 31, 2-(trans-4-((2,2-dimethoxyethyl)(methyl)amino)cyclohexyl)-7-(6-((2S,6R)-2,6-dimethylmorpholino)pyridin-3-yl)-2,4-dimethyl-N-((6-methyl-4-(methylthio)-2-oxo-1,2-dihydropyridin-3-yl)methyl)benzo[d][1,3]dioxole-5-carboxamide] is not above 10 nM.
The same measure, in the same setting: the figure for `CSc1cc(C)[nH]c(=O)c1CNC(=O)c1cc(-c2cnc(N3CCCC3)nc2)c2c(c1C)OC(C)([C@H]1CC[C@H](N(C)C)CC1)O2` (stereo partly drawn) [Compound 5, 2-(trans-4-(dimethylamino)cyclohexyl)-2,4-dimethyl-N-((6-methyl-4-(methylthio)-2-oxo-1,2-dihydropyridin-3-yl)methyl)-7-(2-(pyrrolidin-1-yl)pyrimidin-5-yl)benzo[d][1,3]dioxole-5-carboxamide] is not above 10 nM; for `CSc1cc(C)[nH]c(=O)c1CNC(=O)c1cc(-c2cnc(N(C)C)nc2)c2c(c1C)OC(C)(C1CCN(CC(F)(F)F)CC1)O2` (stereo not shown) [Compound 35, 7-(2-(dimethylamino)pyrimidin-5-yl)-2,4-dimethyl-N-((6-methyl-4-(methylthio)-2-oxo-1,2-dihydropyridin-3-yl)methyl)-2-(1-(2,2,2-trifluoroethyl)piperidin-4-yl)benzo[d][1,3]dioxole-5-carboxamide] it is not above 10 nM.
Still for that read-out and setting: under `CCN(C)c1ncc(-c2cc(C(=O)NCc3c(SC)cc(C)[nH]c3=O)c(C)c3c2OC(C)(C2CCN(CC(F)(F)F)CC2)O3)cn1` (stereo not shown) [Compound 78] stands not above 10 nM; under `COc1ccc(-c2cc(C(=O)NCc3c(SC)cc(C)[nH]c3=O)c(C)c3c2OC(C)(C2CCN(CC(F)(F)F)CC2)O3)cn1` (stereo not shown) [Compound 36, 7-(6-methoxypyridin-3-yl)-2,4-dimethyl-N-((6-methyl-4-(methylthio)-2-oxo-1,2-dihydropyridin-3-yl)methyl)-2-(1-(2,2,2-trifluoroethyl)piperidin-4-yl)benzo[d][1,3]dioxole-5-carboxamide], not above 10 nM; under `CSc1cc(C)[nH]c(=O)c1CNC(=O)c1cc(-c2ccc3occc3c2)c2c(c1C)OC(C)(C1CCN(CC(F)(F)F)CC1)O2` (stereo not shown) [Compound 96, 7-(benzofuran-5-yl)-2,4-dimethyl-N-((6-methyl-4-(methylthio)-2-oxo-1,2-dihydropyridin-3-yl)methyl)-2-(1-(2,2,2-trifluoroethyl)piperidin-4-yl)benzo[d][1,3]dioxole-5-carboxamide], not below 100 nM.
`CSc1cc(C)[nH]c(=O)c1CNC(=O)c1cc(-c2ccc(N3C[C@@H](C)O[C@@H](C)C3)nc2)c2c(c1C)OC(C)([C@H]1CC[C@H](N(C)CCc3ccccc3)CC1)O2` (stereo partly drawn) [Compound 112, 7-(6-((2S,6R)-2,6-dimethylmorpholino)pyridin-3-yl)-2,4-dimethyl-2-(trans-4-(methyl(phenethyl)amino)cyclohexyl)-N-((6-methyl-4-(methylthio)-2-oxo-1,2-dihydropyridin-3-yl)methyl)benzo[d][1,3]dioxole-5-carboxamide]: the IC50 was not above 10 nM.
On the same count and under the same terms, the figure for `CSc1cc(C)[nH]c(=O)c1CNC(=O)c1cc(-c2c(C)noc2C)c2c(c1C)OC(C)([C@H]1CC[C@H](N(C)C)CC1)O2` (stereo partly drawn) [Compound 13, 2-(trans-4-(dimethylamino)cyclohexyl)-7-(3,5-dimethylisoxazol-4-yl)-2,4-dimethyl-N-((6-methyl-4-(methylthio)-2-oxo-1,2-dihydropyridin-3-yl)methyl)benzo[d][1,3]dioxole-5-carboxamide] is not above 10 nM.
